Test system: HIV-1 integrase catalytic core (disintegration assay)
Assay: Compound was tested in vitro to inhibit human immuno virus-1 (HIV-1) using enzymatic disintegration assay.

| IC50 [µM] | Compound |
| --- | --- |
| 2.7 | O=C(O)c1cc(/C=C/c2ccc3ccc(C(=O)O)c(O)c3n2)ccc1O [2-(3-carboxy-4-hydroxystyryl)-8-hydroxyquinoline-7-carboxylic acid] |
| > 100 | Oc1cccc2ccc(/C=C/c3ccccc3)nc12 [2-Styryl-quinolin-8-ol] |
| 4.2 | O=C(O)c1ccc2ccc(/C=C/c3ccc(O)cc3)nc2c1O [8-hydroxy-2-(4-hydroxystyryl)quinoline-7-carboxylic acid] |
| 3.4 | O=C(O)c1ccc2ccc(/C=C/c3ccccc3)nc2c1O [8-hydroxy-2-styrylquinoline-7-carboxylic acid] |

— BindingDB's records for doi:10.1021/jm9911581 (Cnrs Umr 8532, 2000)
